Data as given in US6911443B2 (Bayer Aktiengesellschaft, priority 2000, dated 2005).
pIC50: −log10 of the molar value.

Each compound was assayed against T1, human Syk (GST-Syk) (Homo sapiens, UniProt P43405) (assay: Syk tyrosine kinase inhibitory assay). Details: Activity grade (IC50 class), in vitro; compounds as yielded by solid phase synthesis, purity about 40 to 90%.
T1 construct: A cDNA fragment encoding human Syk openreading frame was cloned; made in house; host or cells: Sf21 insect cells (baculovirus, transfer vector pAcG2T)
Type: biochemical
Method in brief: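 GST-tagged human Syk from baculovirus/Sf21, 0.65 nM final, with 3 μM biotinylated 30-residue activation-loop peptide and 30 μM ATP in Tris pH 8.0/MgCl2 buffer, 0.25% DMSO; 1 h at room temperature. Phosphopeptide captured on streptavidin, detected by europium-labelled anti-phosphotyrosine 4G10 time-resolved fluorescence.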

SMILES | pIC50
CCSc1nc(-c2ccc(OC(=O)N(C)C)c(OC)c2)cc2nccn12 [Example 3-12] | 5.00 to 5.70

Same assay, conditions: Table 11; read-out: Activity grade

SMILES | pIC50
COc1cc(-c2cc3nccn3c(Nc3ccc(C(F)(F)F)cc3)n2)ccc1N1CCOCC1 [Example 12-49] | > 6.30
COc1cc(-c2cc3nccn3c(Nc3ccccc3)n2)ccc1O [Example 12-19] | > 6.30
COc1cc(-c2cc3nccn3c(Nc3cccc(S(C)(=O)=O)c3)n2)ccc1N1CCOCC1 [Example 12-60] | > 6.30
COc1cc(-c2cc3nccn3c(Nc3ccc(C)cc3)n2)ccc1N1CCOCC1 [Example 12-47] | > 6.30
COc1ccc(-c2cc3nccn3c(Nc3ccccc3)n2)cc1OCCN1CCOCC1 [Example 12-25] | > 6.30
COc1ccc(Nc2nc(-c3ccc(N(C)C)c(OC)c3)cc3nccn23)cc1 [Example 12-52] | > 6.30
COCCN(C)c1ccc(-c2cc3nccn3c(Nc3ccccc3)n2)cc1OC [Example 12-41] | > 6.30
COCCN(C)c1ccc(-c2cc3nccn3c(Nc3ccc(OC)cc3)n2)cc1OC [Example 12-51] | > 6.30
COc1ccc(-c2cc3nccn3c(Nc3ccccc3)n2)cc1[N+](=O)[O-] [Example 12-32] | > 6.30
COc1cc(-c2cc3nccn3c(Nc3ccccc3)n2)ccc1OCc1ccccc1 [Example 12-18] | 5.70 to 6.30
COc1ccc(-c2cc3nccn3c(Nc3cccc(Cl)c3)n2)cc1OC [Example 12-11] | > 6.30
COc1cc(-c2cc3nccn3c(Nc3ccccc3)n2)ccc1NCCCN1CCCC1=O [Example 12-40] | > 6.30
COc1ccc(-c2cc3nccn3c(Nc3ccc(Br)cn3)n2)cc1OC [Example 12-9] | > 6.30

Same assay, conditions: Table 13; read-out: Activity grade

SMILES | pIC50
COc1ccc(-c2cc3nccn3c(SCCN(C(C)C)C(C)C)n2)cc1OC [Example 14-19] | 5.70 to 6.30
COc1ccc(-c2cc3nccn3c(SCc3cccc(C(F)(F)F)c3)n2)cc1OC [Example 14-13] | 5.00 to 5.70
Oc1ccc(Sc2nc(-c3ccccc3)cc3ncnn23)cc1 [Example 14-8] | 5.00 to 5.70
COc1ccc(-c2cc3nccn3c(Sc3ccc(CCC(=O)O)cc3C(N)=O)n2)cc1OC [Example 14-35] | 5.70 to 6.30
CCCSc1nc(-c2ccc(OC)c(OC)c2)cc2nccn12 [Example 14-17] | > 6.30

Same assay, conditions: Table 15; read-out: Activity grade

SMILES | pIC50
COc1ccc(-c2cc3nccn3c(Sc3nnnn3C)n2)cc1OC [Example 16-1] | > 6.30

Same assay, conditions: Table 16; read-out: Activity grade

SMILES | pIC50
CCSc1nc(-c2ccc(NC)c(OC)c2)cc2nccn12 [Example 17-14] | 5.70 to 6.30

Same assay, conditions: Table 17; IC50 classes; read-out: Activity grade

SMILES | pIC50
COc1ccc(-c2cc3nccn3c(Nc3ccc(C(=O)NCC(O)CO)cc3)n2)cc1OC (stereo not drawn) [Example 5] | > 6.30
COc1ccc(-c2cc3nccn3c(Sc3ccc(CCC(=O)N4CCOCC4)cc3)n2)cc1OC [Example 18] | > 6.30
COc1ccc(-c2cc3nccn3c(Nc3ccc(CC(N)C(=O)O)cc3)n2)cc1OC (stereo not drawn) [Example 30] | > 6.30
CNC(=O)CCc1ccc(Sc2nc(-c3ccc(OC)c(OC)c3)cc3nccn23)cc1 [Example 21] | > 6.30

Same assay, conditions: in vitro; compounds as yielded by solid phase synthesis, purity about 40 to 90%

SMILES | Activity grade (IC50 class)
COc1ccc(-c2cc3nccn3c(N3CCC(Cc4ccccc4)CC3)n2)cc1OC [Example 9-59] | C-D
CCSc1nc(-c2ccc(S(=O)(=O)N3CCN(C)CC3)c(OC)c2)cc2nccn12 [Example 2-9] | C-D

Same assay, conditions: in vitro; compounds as yielded by solid phase synthesis, purity about 40 to 90%; read-out: Activity grade (IC50 class)

SMILES | pIC50
COc1ccc(Nc2nc(-c3ccc(OCCN4CCOCC4)c(OC)c3)cc3nccn23)c(C(N)=O)c1 [Example 9-95] | > 6.30
CNC(=O)c1ccccc1Nc1nc(-c2ccc(OC)c(OC)c2)cc2nccn12 [Example 11-99] | > 6.30
COc1ccc(-c2cc3nccn3c(N(CCO)Cc3ccccc3)n2)cc1OC [Example 9-29] | > 6.30
COc1ccc(-c2cc3nccn3c(N3CCOCC3)n2)cc1OC [Example 9-30] | 5.00 to 5.70
CCSc1nc(-c2ccc3c(c2)OCO3)cc2nccn12 [Example 1-3] | 5.70 to 6.30
COc1ccc(-c2cc3nccn3c(Nc3ccc(CCN4C(=O)c5ccccc5C4=O)cc3)n2)cc1OC [Example 9-26] | 5.70 to 6.30
COc1cc(-c2cc3nccn3c(Sc3ccc(CCC(=O)O)cc3)n2)ccc1OCc1ccccc1 [Example 13-26] | > 6.30
CCOC(=O)N1CCN(c2nc(-c3ccc(OC)c(OC)c3)cc3nccn23)CC1 [Example 9-72] | 5.00 to 5.70
COc1ccc(-c2cc3nccn3c(Nc3ccc(NCCN4CCOCC4)cc3)n2)cc1OC [Example 11-82] | > 6.30
CCSc1nc(-c2ccc(OC(=O)C(C)C)c(OC)c2)cc2nccn12 [Example 3-8] | 5.70 to 6.30
CCCCNS(=O)(=O)c1cccc(Nc2nc(-c3ccc(OC)c(OC)c3)cc3nccn23)c1 [Example 11-73] | > 6.30
CCSc1nc(-c2ccc(OC)c(S(=O)(=O)NCCO)c2)cc2nccn12 [Example 2-2] | > 6.30
COc1ccc(-c2cc3nccn3c(Sc3nc[nH]n3)n2)cc1OC [Example 13-29] | > 6.30
COc1ccc(-c2cc3nccn3c(Nc3ccccc3S(N)(=O)=O)n2)cc1OC [Example 11-113] | > 6.30
COc1ccc(-c2cc3nccn3c(Nc3ccc(S(N)(=O)=O)cc3)n2)cc1OC [Example 11-76] | > 6.30
COc1ccc(-c2cc3nccn3c(N[C@@H](CO)Cc3ccccc3)n2)cc1OC [Example 9-5] | 5.70 to 6.30
CCSc1nc(-c2cccs2)cc2nccn12 [Example 8-3] | 5.70 to 6.30
COc1ccc(-c2cc3nccn3c(Nc3cc(F)c(F)cc3F)n2)cc1OC [Example 11-40] | > 6.30
COc1ccc(-c2cc3nccn3c(Nc3ccc(/C=C/C(=O)OC(C)(C)C)cc3C(N)=O)n2)cc1OC [Example 11-14] | > 6.30
COc1ccc(Nc2nc(-c3ccc(OC)c(OC)c3)cc3nccn23)cc1F [Example 11-100] | > 6.30
COc1ccc(-c2cc3nccn3c(Nc3cccc(O)c3)n2)cc1OC [Example 11-30] | > 6.30
COc1ccc(-c2cc3ncnn3c(Nc3ccc4cn[nH]c4c3)n2)cc1OC [Example 11-103] | > 6.30
COc1ccc(-c2cc3nccn3c(Nc3ccc(C(N)=O)cc3)n2)cc1OC [Example 11-36] | > 6.30
CCSc1nc(-c2ccc(OC)nc2)cc2nccn12 [Example 1-2] | 5.00 to 5.70
COc1ccc(-c2cc3nccn3c(Nc3cc([N+](=O)[O-])ccc3C(N)=O)n2)cc1OC [Example 11-109] | > 6.30
COc1ccc(Nc2nc(-c3ccc(OC)c(OC)c3)cc3nccn23)cc1OC [Example 11-84] | > 6.30
CCSc1nc(-c2ccc(OCCCN3CCC(C(N)=O)CC3)c(OC)c2)cc2nccn12 [Example 5-13] | > 6.30

SMILES | pIC50
COc1ccc(-c2cc3nccn3c(Nc3ccccc3O)n2)cc1OC [Example 11-31] | > 6.30
CCSc1nc(-c2ccc(C)c(S(=O)(=O)N3CCN(CCO)CC3)c2)cc2nccn12 [Example 2-1] | 5.70 to 6.30
COc1ccc(-c2cc3nccn3c(Nc3cccc(S(C)(=O)=O)c3)n2)cc1OC [Example 11-120] | > 6.30
COc1ccc(-c2cc3nccn3c(Sc3nccn3C)n2)cc1OC [Example 13-12] | > 6.30
COc1ccc(-c2cc3nccn3c(N3CCN(c4ccc(C(C)=O)cc4)CC3)n2)cc1OC [Example 9-36] | 5.00 to 5.70
COc1ccc(-c2cc3nccn3c(N3CCSCC3)n2)cc1OC [Example 9-75] | 5.70 to 6.30
C=CCN(c1ccccc1)c1nc(-c2ccc(OC)c(OC)c2)cc2nccn12 [Example 11-47] | > 6.30
COc1ccc(CNc2nc(-c3ccc(OC)c(OC)c3)cc3nccn23)c(OC)c1 [Example 9-80] | 5.70 to 6.30
COC(=O)CCSc1nc(-c2ccc(OC)c(OC)c2)cc2nccn12 [Example 9-90] | > 6.30
COc1ccc(-c2cc3nccn3c(N(C)c3cccc(Cl)c3)n2)cc1OC [Example 11-50] | > 6.30
COc1ccc(-c2cc3nccn3c(Nc3ccc(C(=N)N)cc3)n2)cc1OC [Example 11-67] | > 6.30
COc1ccc(-c2cc3nccn3c(Nc3ccccc3[N+](=O)[O-])n2)cc1OC [Example 11-56] | > 6.30
CCSc1nc(-c2ccc(OCCN3CC(C)OC(C)C3)c(OC)c2)cc2nccn12 (stereo not drawn) [Example 5-14] | > 6.30
COc1ccc(-c2cc3nccn3c(Nc3ccc(F)cc3C(=O)O)n2)cc1OC [Example 11-41] | > 6.30
COc1ccc(-c2cc3nccn3c(Nc3ccc(O)cc3)n2)cc1OC [Example 11-29] | > 6.30
COc1ccc(-c2cc3nccn3c(Sc3nc4ccccc4s3)n2)cc1OC [Example 13-11] | > 6.30
COc1ccc(-c2cc3nccn3c(N(C)CCN(C)C)n2)cc1OC [Example 9-76] | 5.00 to 5.70
COc1ccc(-c2cc3ncnn3c(Nc3ccc(CCC(=O)O)cc3C(N)=O)n2)cc1OC [Example 11-101] | > 6.30
COc1ccc(-c2cc3nccn3c(Sc3cc(C)ccc3C)n2)cc1OC [Example 13-1] | 5.70 to 6.30
COc1ccc(-c2cc3nccn3c(SCC(C)C(=O)O)n2)cc1OC (stereo not drawn) [Example 9-91] | 5.70 to 6.30
CCOC(=O)CN(C)c1nc(-c2ccc(OC)c(OC)c2)cc2nccn12 [Example 9-77] | 5.00 to 5.70
CCSc1nc(-c2ccc(OC)c(OC3CCCCC3)c2)cc2nccn12 [Example 4-4] | 5.70 to 6.30
COc1ccc(-c2cc3nccn3c(Nc3ccccc3)n2)cc1OC [Example 11-16] | > 6.30
COc1ccc(-c2cc3nccn3c(N3CCC(=O)CC3)n2)cc1OC [Example 9-58] | 5.70 to 6.30
COc1ccc(-c2cc3nccn3c(Nc3ccc(OCCN4CCOCC4)cc3)n2)cc1OC [Example 11-91] | > 6.30
CCSc1nc(-c2ccc(OC)c(OCC3CCCCO3)c2)cc2nccn12 (stereo not drawn) [Example 4-5] | 5.70 to 6.30
COc1ccc(-c2cc3nccn3c(Nc3ccc4c(c3)[nH]c(=O)n4C)n2)cc1OC [Example 11-118] | > 6.30
